Data as given in ChEMBL document CHEMBL6087458, “The Discovery of a Novel AXL/Triple Angiokinase Inhibitor Based on 6-Chloro-Substituted Indolinone and Side Chain Methyl Substitution Inhibiting Pancreatic Cancer Growth and Metastasis” (J Med Chem, 2025).
Calls of active or inactive are those of the source. The calls are words filed in the database; no cut-off is given here.

Tests used:
[1] = Cytotoxicity against mouse NIH/3T3 cells assessed as cell viability incubated for 72 hrs by MTT assay; format: toxicity, cell-based, NIH3T3
[2] = target: Vascular endothelial growth factor receptor 2 (Homo sapiens, UniProt P35968); assay: Inhibition of KDR (unknown origin) by envision reader analysis
[3] = target: Tyrosine-protein kinase ABL1 (Homo sapiens) (UniProt P00519); assay: Inhibition of ABL1 (unknown origin) by envision reader analysis
BXPC-3 [4] = assay: Effect on AXL expression in human BXPC-3 cells; format: functional, cell-based
[5] = Antiproliferative activity against mouse NIH/3T3 cells cultured as 3D tumor spheroids assessed as cell viability incubated for 72 hrs by CCK-8 assay; format: toxicity, cell-based, NIH3T3
HUVEC [6] = assay: Anti-angiogenesis activity in HUVEC assessed as reduction in number of vascular nodes at 0.5 to 2 uM incubated for 24 hrs by Calcein AM staining based light microscopic analysis; format: functional, cell-based; conditions: Homo sapiens, dose 0.5-2 µM
HUVEC [7] = assay: Effect on VEGFR expression in HUVEC cells at 0.5 to 2 uM incubated for 24 to 72 hrs by immunofluorescence assay; format: functional, cell-based; conditions: Homo sapiens, dose 0.5-2 µM, time 24-72 hrs
NIH3T3 = assay: Antiproliferative activity against mouse NIH/3T3 cells cultured as 3D tumor spheroids assessed as reduction in pseudopodia on cell surface; format: functional, cell-based
Mitochondrial membrane [8] = assay: Induction of mitochondrial membrane potential in mouse NIH/3T3 cells assessed as decrease in red fluorescence intensity incubated for 48 hrs by JC-1 staining based flow cytometry; format: cell membranes
Mitochondrial membrane [9] = assay: Induction of mitochondrial membrane potential in mouse NIH/3T3 cells assessed as increase in green fluorescence intensity incubated for 48 hrs by JC-1 staining based flow cytometry; format: cell membranes
MDA-MB-231 [10] = assay: Inhibition of colony formation in human MDA-MB-231 cells at 0.5 uM incubated for 72 hrs; format: functional, cell-based
BXPC-3 [11] = assay: Inhibition of colony formation in human BXPC-3 cells at 0.5 uM incubated for 72 hrs; format: functional, cell-based
MDA-MB-231 [12] = assay: Down regulation of Ki67 expression in human MDA-MB-231 cells by immunofluorescence assay; format: functional, cell-based
BXPC-3 [13] = assay: Down regulation of Ki67 expression in human BXPC-3 cells by immunofluorescence assay; format: functional, cell-based
MDA-MB-231 [14] = conditions: Homo sapiens, MDA-MB-231, 168 h
Mitochondrial membrane [15] = assay: Induction of mitochondrial membrane potential depolarization in human BXPC-3 cells at 0.2 to 0.5 uM incubated for 24 hrs by JC-1 staining based flow cytometry analysis; format: cell membranes; conditions: dose 0.2-0.5 µM
BXPC-3 [16] = assay: Inhibition of cell migration in human BXPC-3 cells assessed as decrease in cell migration incubated for 24 hrs by wound healing assay; format: functional, cell-based
MDA-MB-231 [17] = assay: Inhibition of cell migration in human MDA-MB-231 cells assessed as decrease in cell migration incubated for 24 hrs by wound healing assay; format: functional, cell-based
BXPC-3 [18] = assay: Effect on N-cadherin expression in TGF-beta induced human BXPC-3 cells at 0.1 to 0.5 uM incubated for 24 hrs by immunofluorescence assay; format: functional, cell-based; conditions: dose 0.1-0.5 µM
MDA-MB-231 [19] = assay: Effect on E-cadherin expression in TGF-beta induced human MDA-MB-231 cells at 0.1 to 0.5 uM incubated for 24 hrs by immunofluorescence assay; format: functional, cell-based; conditions: dose 0.1-0.5 µM
BXPC-3 [20] = assay: Antitumor activity against human BXPC-3 cells xenografted in mouse assessed as tumor growth inhibition at 50 mg/kg, po administered for 14 days; format: functional; conditions: BXPC-3, 336 h, time 14 day, read-out: TGI
BXPC-3 [21] = assay: Antitumor activity against human BXPC-3 cells xenografted in mouse assessed as tumor growth inhibition at 25 mg/kg, po administered for 14 days; format: functional; conditions: BXPC-3, 336 h, time 14 day, read-out: TGI
BXPC-3 [22] = assay: Antitumor activity against human BXPC-3 cells xenografted in mouse assessed as reduction in tumor weight at 50 mg/kg, po administered for 14 days; format: functional; set-up: scale not given: the % may be the effect or the level left; conditions: time 14 day
BXPC-3 [23] = assay: Antitumor activity against human BXPC-3 cells xenografted in mouse assessed as reduction in tumor weight at 25 mg/kg, po administered for 14 days; format: functional; set-up: scale not given: the % may be the effect or the level left; conditions: time 14 day
[24] = Toxicity in mouse implanted with human BXPC-3 cells assessed as body weight loss at 25 to 50 mg/kg, po measured on day 11; format: organism-based; conditions: in vivo, 264 h, dose 25-50 mg/kg, time 11 day
[25] = Toxicity in mouse implanted with human BXPC-3 cells assessed as mortality at 25 to 50 mg/kg, po measured on day 11; format: organism-based; conditions: in vivo, 264 h, dose 25-50 mg/kg, time 11 day
BXPC-3 [26] = assay: Antitumor activity against human BXPC-3 cells xenografted in mouse assessed as reduction in Ki67 expression in tumor at 25 to 50 mg/kg, po administered for 14 days; format: functional, organism-based; conditions: dose 25-50 mg/kg, time 14.0 day
[27] = Toxicity in mouse implanted with human BXPC-3 cells assessed as liver damage at 50 mg/kg, po by H and E staining based analysis; format: organism-based; conditions: in vivo
[28] = Toxicity in mouse implanted with human BXPC-3 cells assessed as spleen damage at 50 mg/kg, po by H and E staining based analysis; format: organism-based; conditions: in vivo
[29] = Cytotoxicity against human HaCaT cells assessed as inhibition of cell growth; format: toxicity, cell-based
[30] = Cytotoxicity against human MCF-10A cells assessed as inhibition of cell growth; format: toxicity, cell-based
[31] = Cytotoxicity against human HEK293 cells assessed as inhibition of cell growth; format: toxicity, cell-based
[32] = Metabolic stability in rat liver microsome assessed as half life measured upto 240 mins by HPLC analysis; format: ADME; conditions: liver microsomes
[33] = Tmax in Sprague-Dawley rat at 50 mg/kg, po; format: ADME, organism-based; conditions: in vivo
[34] = Cmax in Sprague-Dawley rat at 50 mg/kg, po; format: ADME, organism-based; conditions: in vivo
[35] = AUC (0 to last) in Sprague-Dawley rat at 5 mg/kg, iv; format: ADME, organism-based; conditions: Sprague-Dawley, in vivo
[36] = AUC (0 to last) in Sprague-Dawley rat at 50 mg/kg, po; format: ADME, organism-based; conditions: Sprague-Dawley, in vivo
[37] = Half life in Sprague-Dawley rat at 50 mg/kg, po; format: ADME, organism-based; conditions: in vivo
[38] = Clearance in Sprague-Dawley rat at 5 mg/kg, iv; format: ADME, organism-based; conditions: in vivo
[39] = Volume of distribution at steady state in Sprague-Dawley rat at 5 mg/kg, iv; format: ADME, organism-based; conditions: in vivo, read-out: Vdss
MDA-MB-231 [40] = assay: cells; conditions: Homo sapiens, MDA-MB-231, 72 h
Description: Antiproliferative activity against human MDA-MB-231 cells assessed as cell viability incubated for 72 hrs by MTT assay

MKN-45 = assay: cells; conditions: Homo sapiens, MKN-45, 72 h
Description: Antiproliferative activity against human MKN-45 cells assessed as cell viability incubated for 72 hrs by MTT assay

SW480 = assay: cells; conditions: Homo sapiens, SW480, 72 h
Description: Antiproliferative activity against human SW480 cells assessed as cell viability incubated for 72 hrs by MTT assay

PC-9 = assay: cells; conditions: Homo sapiens, PC-9, 72 h
Description: Antiproliferative activity against human PC-9 cells assessed as cell viability incubated for 72 hrs by MTT assay

A549 = assay: cells; conditions: Homo sapiens, A549, 72 h
Description: Antiproliferative activity against human A549 cells assessed as cell viability incubated for 72 hrs by MTT assay

cells = conditions: Homo sapiens, CDDP-resistant A549 cell, 72 h
Description: Antiproliferative activity against human CDDP-resistant A549 cell assessed as cell viability incubated for 72 hrs by MTT assay

[41] = test system: Osimertinib-resistant NCI-H1975 cell; assay: cells; conditions: Homo sapiens, 72 h

Sequence of Vascular endothelial growth factor receptor 2 (P35968 whole entry): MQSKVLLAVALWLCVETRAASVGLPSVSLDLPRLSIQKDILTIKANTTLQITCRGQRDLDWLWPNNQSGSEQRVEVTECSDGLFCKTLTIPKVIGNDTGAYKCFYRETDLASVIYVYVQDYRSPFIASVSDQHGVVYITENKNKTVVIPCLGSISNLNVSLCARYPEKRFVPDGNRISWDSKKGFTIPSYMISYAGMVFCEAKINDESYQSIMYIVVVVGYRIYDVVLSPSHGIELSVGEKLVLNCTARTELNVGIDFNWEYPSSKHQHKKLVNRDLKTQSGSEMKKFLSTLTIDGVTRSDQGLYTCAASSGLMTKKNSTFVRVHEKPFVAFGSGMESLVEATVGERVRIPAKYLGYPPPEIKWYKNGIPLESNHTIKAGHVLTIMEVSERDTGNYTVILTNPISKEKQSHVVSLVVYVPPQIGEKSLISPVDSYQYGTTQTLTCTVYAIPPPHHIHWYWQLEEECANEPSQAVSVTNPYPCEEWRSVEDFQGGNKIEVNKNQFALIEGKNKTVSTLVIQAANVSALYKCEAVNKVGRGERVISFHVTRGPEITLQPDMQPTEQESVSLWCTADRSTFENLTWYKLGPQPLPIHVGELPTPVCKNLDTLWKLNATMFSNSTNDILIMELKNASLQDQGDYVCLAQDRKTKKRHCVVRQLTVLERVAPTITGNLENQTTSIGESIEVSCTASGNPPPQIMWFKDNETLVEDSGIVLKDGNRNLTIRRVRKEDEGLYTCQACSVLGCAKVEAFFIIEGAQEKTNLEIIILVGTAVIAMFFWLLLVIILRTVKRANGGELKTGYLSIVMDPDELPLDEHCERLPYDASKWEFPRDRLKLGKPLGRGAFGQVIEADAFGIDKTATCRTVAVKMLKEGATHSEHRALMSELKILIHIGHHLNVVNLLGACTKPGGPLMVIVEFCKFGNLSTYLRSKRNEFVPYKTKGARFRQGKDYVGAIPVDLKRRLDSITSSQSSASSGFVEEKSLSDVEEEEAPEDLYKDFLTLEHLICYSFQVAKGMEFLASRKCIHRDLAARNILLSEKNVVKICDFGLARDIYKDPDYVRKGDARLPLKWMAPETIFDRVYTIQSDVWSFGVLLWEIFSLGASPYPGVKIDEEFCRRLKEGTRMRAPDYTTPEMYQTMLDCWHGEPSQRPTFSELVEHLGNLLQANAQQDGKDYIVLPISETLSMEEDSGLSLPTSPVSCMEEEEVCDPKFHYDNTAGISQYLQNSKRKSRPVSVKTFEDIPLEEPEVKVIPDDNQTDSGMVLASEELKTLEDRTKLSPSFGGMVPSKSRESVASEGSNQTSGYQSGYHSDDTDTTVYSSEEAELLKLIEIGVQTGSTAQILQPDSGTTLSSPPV
Sequence of Tyrosine-protein kinase ABL1 (Homo sapiens) (P00519 whole entry): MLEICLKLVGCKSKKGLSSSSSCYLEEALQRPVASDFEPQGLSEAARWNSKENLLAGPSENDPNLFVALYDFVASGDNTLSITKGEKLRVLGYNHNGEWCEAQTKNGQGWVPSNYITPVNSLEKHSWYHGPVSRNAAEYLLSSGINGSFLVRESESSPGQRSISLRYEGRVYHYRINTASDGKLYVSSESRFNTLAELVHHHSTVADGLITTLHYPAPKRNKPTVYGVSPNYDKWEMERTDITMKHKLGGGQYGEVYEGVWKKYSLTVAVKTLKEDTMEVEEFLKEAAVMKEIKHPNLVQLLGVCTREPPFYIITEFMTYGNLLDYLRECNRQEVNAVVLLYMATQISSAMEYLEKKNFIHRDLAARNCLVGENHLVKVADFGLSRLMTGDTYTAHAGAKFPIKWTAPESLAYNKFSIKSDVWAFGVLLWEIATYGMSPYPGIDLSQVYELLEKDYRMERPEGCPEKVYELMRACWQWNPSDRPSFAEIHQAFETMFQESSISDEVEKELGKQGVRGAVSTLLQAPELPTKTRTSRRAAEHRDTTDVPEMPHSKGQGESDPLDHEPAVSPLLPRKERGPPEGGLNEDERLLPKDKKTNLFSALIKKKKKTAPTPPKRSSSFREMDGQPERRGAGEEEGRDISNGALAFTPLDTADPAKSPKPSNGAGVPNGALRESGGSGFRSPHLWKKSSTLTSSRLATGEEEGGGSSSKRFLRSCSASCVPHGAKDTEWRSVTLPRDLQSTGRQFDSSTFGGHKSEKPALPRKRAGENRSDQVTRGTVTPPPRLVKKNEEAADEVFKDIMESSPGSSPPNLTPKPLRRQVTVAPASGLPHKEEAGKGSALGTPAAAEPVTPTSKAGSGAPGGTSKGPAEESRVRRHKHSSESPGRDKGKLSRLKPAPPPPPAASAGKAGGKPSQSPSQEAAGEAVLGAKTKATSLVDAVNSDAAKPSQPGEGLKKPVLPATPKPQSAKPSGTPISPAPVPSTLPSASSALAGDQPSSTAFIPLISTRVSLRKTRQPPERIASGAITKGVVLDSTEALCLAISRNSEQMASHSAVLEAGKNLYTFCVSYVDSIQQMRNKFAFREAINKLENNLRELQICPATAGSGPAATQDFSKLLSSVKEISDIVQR

Q: With `CCN1CCN(C(C)C(=O)N(C)c2ccc(N/C(=C3\C(=O)Nc4cc(Cl)ccc43)c3ccccc3)cc2)CC1` (racemic) as the compound, how does the IC50 at 72 h [1] read?
A: 1.14 µM

Q: And the IC50 [2]?
A: 0.00152 µM

Q: What about the inhibition [3] of the same compound?
A: Active

Q: And the Activity (BXPC-3 [4])?
A: Active

Q: What about the IC50 at 72 h [5] of the same compound?
A: 2.31 µM

Q: What about the Activity (HUVEC [6]) of the same compound?
A: Active

Q: And the Activity (HUVEC [7])?
A: Active

Q: And the Activity (NIH3T3)?
A: Active

Q: What about the Activity (Mitochondrial membrane [8]) of the same compound?
A: Active

Q: What about the Activity (Mitochondrial membrane [9]) of the same compound?
A: Active

Q: What about the inhibition (MDA-MB-231 [10]) of the same compound?
A: Active

Q: What about the inhibition (BXPC-3 [11]) of the same compound?
A: Active

Q: And the Activity (MDA-MB-231 [12])?
A: Active

Q: What about the Activity (BXPC-3 [13]) of the same compound?
A: Active

Q: What about the IC50 (MDA-MB-231 [14]) of the same compound?
A: 2.22 µM

Q: And the Activity (Mitochondrial membrane [15])?
A: Active

Q: What about the inhibition (BXPC-3 [16]) of the same compound?
A: Active

Q: What about the inhibition (MDA-MB-231 [17]) of the same compound?
A: Active

Q: What about the Activity (BXPC-3 [18]) of the same compound?
A: Active

Q: And the Activity (MDA-MB-231 [19])?
A: Active

Q: What about the inhibition in vivo at 50 mg/kg (BXPC-3 [20]) of the same compound?
A: 83%

Q: What about the inhibition in vivo at 25 mg/kg (BXPC-3 [21]) of the same compound?
A: 96.7%

Q: And the Activity (BXPC-3 [22])?
A: 56.46%

Q: And the Activity (BXPC-3 [23])?
A: 71%

Q: And the Activity [24]?
A: Non-toxic

Q: What about the Activity [25] of the same compound?
A: Non-toxic

Q: And the AC30 (BXPC-3 [26])?
A: Active

Q: What about the Activity [27] of the same compound?
A: Non-toxic

Q: What about the Activity [28] of the same compound?
A: Non-toxic

Q: And the IC50 [29]?
A: > 10 µM

Q: And the IC50 [30]?
A: > 10 µM

Q: And the IC50 [31]?
A: > 10 µM

Q: What about the half-life [32] of the same compound?
A: 0.518 h

Q: And the Tmax [33]?
A: 8 h

Q: What about the Cmax [34] of the same compound?
A: 0.088 µg/mL

Q: What about the AUC(0-t) [35] of the same compound?
A: 1.77 µg·h/mL

Q: What about the AUC(0-t) [36] of the same compound?
A: 1.15 µg·h/mL

Q: What about the half-life [37] of the same compound?
A: 18.8 h

Q: And the clearance [38]?
A: 2.79 L/h/kg

Q: What about the Vd [39] of the same compound?
A: 12.8 L/kg

Q: What about the IC50 (MDA-MB-231 [40]) of the same compound?
A: 1.16 µM

Q: And the IC50 (MKN-45)?
A: 1.26 µM

Q: What about the IC50 (SW480) of the same compound?
A: 5.91 µM

Q: And the IC50 (PC-9)?
A: 5.91 µM

Q: What about the IC50 (A549) of the same compound?
A: 0.25 µM

Q: And the IC50 (cells)?
A: 5.4 µM

Q: What about the IC50 [41] of the same compound?
A: 1.12 µM
